From the supplement of paper PMC6045584
± gives the standard deviation of the averaged measurements.

Key:
FLAVOPIRIDOL = compound: CN1CC[C@H](c2c(O)cc(O)c3c(=O)cc(-c4ccccc4Cl)oc23)[C@H](O)C1 [FLAVOPIRIDOL]; assay: surviving fraction relative to DMSO-only wells; higher = less growth inhibition; conditions: exposure time: 5 days
In short: (§1)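 Log-phase tumour cell lines, 250–500 cells per well in 384-well plates, received inhibitors at 0.5, 1, 5, 10, 50, 100, 500 and 1000 nM continuously for five days, starting 24 hours after seeding. Viability was quantified with CellTiter-Glo luminescence and normalised to the median of DMSO-only wells to give surviving fraction. Three screens were run per line, and a line stayed in only with replicate Pearson r >0.7 and median Z' >0.3.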

2-METHOXYESTRADIOL = compound: COc1cc2c(cc1O)CC[C@@H]1[C@@H]2CC[C@]2(C)[C@@H](O)CC[C@@H]12 [2-METHOXYESTRADIOL]; assay: as above; conditions: exposure time: 5 days
In short: as §1

| Test System | surviving fraction (FLAVOPIRIDOL; 0.5 nM) | surviving fraction (FLAVOPIRIDOL; 1 nM) | surviving fraction (FLAVOPIRIDOL; 5 nM) | surviving fraction (FLAVOPIRIDOL; 10 nM) | surviving fraction (FLAVOPIRIDOL; 50 nM) | surviving fraction (FLAVOPIRIDOL; 100 nM) | surviving fraction (FLAVOPIRIDOL; 500 nM) | surviving fraction (FLAVOPIRIDOL; 1000 nM) | surviving fraction (2-METHOXYESTRADIOL; 0.5 nM) | surviving fraction (2-METHOXYESTRADIOL; 1 nM) | surviving fraction (2-METHOXYESTRADIOL; 5 nM) | surviving fraction (2-METHOXYESTRADIOL; 10 nM) | surviving fraction (2-METHOXYESTRADIOL; 50 nM) | surviving fraction (2-METHOXYESTRADIOL; 100 nM) | surviving fraction (2-METHOXYESTRADIOL; 500 nM) | surviving fraction (2-METHOXYESTRADIOL; 1000 nM) |
| --- | --- | --- | --- | --- | --- | --- | --- | --- | --- | --- | --- | --- | --- | --- | --- | --- |
| CAL72 BONE | 1.09 ± 0.1 | 1.06 ± 0.021 | 1.05 ± 0.049 | 0.982 ± 0.04 | 0.649 ± 0.053 | 0.142 ± 0.053 | 0.0577 ± 0.0032 | 0.0577 ± 0.0076 | 1.03 ± 0.092 | 0.999 ± 0.14 | 1.01 ± 0.11 | 1.02 ± 0.13 | 1.05 ± 0.099 | 1.02 ± 0.18 | 0.848 ± 0.12 | 0.447 ± 0.2 |
| CAL120 BREAST | 0.971 ± 0.055 | 0.972 ± 0.029 | 0.955 ± 0.058 | 0.949 ± 0.03 | 0.73 ± 0.034 | 0.314 ± 0.051 | 0.0425 ± 0.003 | 0.0403 ± 0.0016 | 0.915 ± 0.051 | 0.912 ± 0.083 | 0.944 ± 0.076 | 0.927 ± 0.029 | 0.931 ± 0.071 | 0.933 ± 0.021 | 0.676 ± 0.025 | 0.316 ± 0.03 |
| CASKI CERVIX | 0.918 ± 0.045 | 0.969 ± 0.031 | 0.919 ± 0.055 | 0.888 ± 0.056 | 0.284 ± 0.028 | 0.0293 ± 0.0015 | 0.022 ± 0.001 | 0.0253 ± 0.00058 | 0.889 ± 0.044 | 0.923 ± 0.029 | 0.899 ± 0.078 | 0.939 ± 0.063 | 1.02 ± 0.057 | 1.05 ± 0.052 | 0.683 ± 0.1 | 0.0593 ± 0.004 |
| CHLA90 AUTONOMIC GANGLIA | 0.987 ± 0.1 | 1 ± 0.12 | 0.906 ± 0.083 | 0.878 ± 0.021 | 0.826 ± 0.11 | 0.573 ± 0.072 | 0.0277 ± 0.0015 | 0.0247 ± 0.00058 | 0.969 ± 0.059 | 0.89 ± 0.077 | 0.879 ± 0.074 | 0.888 ± 0.022 | 0.997 ± 0.047 | 0.998 ± 0.029 | 0.896 ± 0.08 | 0.663 ± 0.005 |
| CME SYNOVIAL | 1.13 ± 0.18 | 1.22 ± 0.07 | 1.23 ± 0.081 | 1.2 ± 0.07 | 0.864 ± 0.053 | 0.25 ± 0.0067 | 0.168 ± 0.004 | 0.228 ± 0.012 | 1.17 ± 0.12 | 1.01 ± 0.079 | 1.19 ± 0.026 | 1.08 ± 0.014 | 1.26 ± 0.11 | 1.16 ± 0.15 | 0.711 ± 0.14 | 0.38 ± 0.027 |
| COLO320DM LARGE INTESTINE | 1.1 ± 0.11 | 1.09 ± 0.086 | 1.08 ± 0.14 | 1.01 ± 0.12 | 0.503 ± 0.0073 | 0.0807 ± 0.0055 | 0.0493 ± 0.00076 | 0.0478 ± 0.0036 | 1.14 ± 0.11 | 1.11 ± 0.12 | 1.08 ± 0.15 | 1.08 ± 0.078 | 1.09 ± 0.15 | 0.965 ± 0.056 | 0.3693 ± 0.0033 | 0.266 ± 0.0093 |
| DU4475 BREAST | 1.05 ± 0.1 | 1.08 ± 0.12 | 0.83 ± 0.07 | 0.914 ± 0.16 | 0.162 ± 0.021 | 0.0273 ± 0.0021 | 0.025 ± 0.0027 | 0.0267 ± 0.0021 | 0.835 ± 0.14 | 0.807 ± 0.045 | 0.849 ± 0.11 | 0.901 ± 0.23 | 0.782 ± 0.17 | 0.746 ± 0.066 | 0.452 ± 0.12 | 0.114 ± 0.044 |
| H23 LUNG | 1.03 ± 0.034 | 1.05 ± 0.027 | 1.15 ± 0.073 | 1.18 ± 0.079 | 1.54 ± 0.11 | 0.5197 ± 0.005 | 0.0303 ± 0.0015 | 0.026 ± 0.001 | 0.97 ± 0.025 | 0.949 ± 0.017 | 1 ± 0.035 | 0.963 ± 0.039 | 0.975 ± 0.06 | 1.03 ± 0.021 | 0.749 ± 0.019 | 0.265 ± 0.004 |
| HCC78 LUNG | 1.08 ± 0.18 | 0.94 ± 0.032 | 0.898 ± 0.11 | 0.809 ± 0.25 | 0.151 ± 0.032 | 0.0467 ± 0.0059 | 0.0207 ± 0.00058 | 0.02 | 0.781 ± 0.22 | 0.786 ± 0.076 | 0.866 ± 0.094 | 1.02 ± 0.24 | 0.827 ± 0.14 | 0.759 ± 0.14 | 0.298 ± 0.087 | 0.0893 ± 0.036 |
| HCC202 BREAST | 0.988 ± 0.55 | 1.17 ± 0.34 | 1.13 ± 0.22 | 1.06 ± 0.31 | 0.847 ± 0.13 | 0.304 ± 0.012 | 0.0405 ± 0.00071 | 0.0405 ± 0.00071 | 1.1 ± 0.39 | 1.22 ± 0.36 | 1.12 ± 0.29 | 1.02 ± 0.19 | 1.23 ± 0.062 | 1.04 ± 0.27 | 0.713 ± 0.32 | 0.564 ± 0.23 |
